Data as given in patent US3931204A, “Thieno[3,4-d]pyrimidines” (U.C.B. Societe Anonyme, priority 1974, dated 1976).

Tests used:
[1] = Intravenous lethal dose (LD50) in rat; conditions: in vivo, solvent: A propylene glycol + water, B polyethylene glycol + ethanol, C, F, G water, D glycofurol
Experimental: (§1) The intravenously administered lethal doses (LD50) were determined in rat and mouse. For compounds A to G mentioned above, the recorded results, expressed in mg of compound per kg of animal body weight, are given in the following Table: […]

[2] = tested on: dog anaesthetized with nembutal; assay: Blood flow in thoracic aorta (cardiac output), vertebral artery (cerebral flow) and femoral artery (musculocutaneous peripheral flow), electromagnetic flow measurement, anaesthetized dog; format: in vivo; conditions: 2 mg/kg animal body weight, intravenous; for increase in the femoral flow: femoral artery; for increase in the cardiac flow: thoracic aorta; for increase in the cerebral flow (in words): vertebral artery; for duration of the increase of the cerebral circulation: increase by 30 to 40%
Experimental: The measurements were carried out by means of periarterial probes according to the principle of electromagnetic flow measurement. The general experimental conditions have already been described in the Literature (D. WELLENS and E. WAUTERS, Arch.Int.Pharmacod.171/1,(1968), 246). The medicament was administered by intravenous route.
The administration of compounds according to the invention, namely the 2-chloro-4-isopropylamino-thieno[3,4-d]pyrimidine monohydrochloride (compound A), the 2-chloro-4-morpholino-thieno[3,4-d]pyrimidine monohydrochloride (compound B), the 2-chloro-4-(3-methyl-morpholino)-thieno[3,4-d]pyrimidine monohydrochloride (compound C), the 2-n-propylamino-4-isopropylamino-thieno[3,4-d]-pyrimidine monomaleate (compound D) and the 2-n-propyl-4-isopropylamino-thieno[3,4-d]pyrimidine mono-maleate (compound E) brought about the following effects under these conditions: […]

[3] = Intravenous lethal dose (LD50) in mouse; conditions: in vivo, solvent: C water, D glycofurol, E polyethylene glycol
Experimental: as §1

[4] = tested on: rabbit, in morphinic respiratory depression; assay: Respiratory analeptic action in morphinic respiratory depression; format: in vivo; conditions: 2,5 mg of free base/kg animal body weight

CC(C)Nc1nc(Cl)nc2cscc12.Cl [A, 2-chloro-4-isopropylamino-thieno[3,4-d]pyrimidine monohydrochloride]
LD50 [1]: 65 mg/kg
increase in the femoral flow [2]: appreciable increase
increase in the cardiac flow [2]: appreciable increase
increase in the cerebral flow (in words) [2]: appreciable increase

Cl.Clc1nc(N2CCOCC2)c2cscc2n1 [B, 2-chloro-4-morpholino-thieno[3,4-d]pyrimidine monohydrochloride]
LD50 [1]: 130 mg/kg
increase in the femoral flow [2]: appreciable increase
increase in the cardiac flow [2]: appreciable increase
increase in the cerebral flow (in words) [2]: appreciable increase

CC1COCCN1c1nc(Cl)nc2cscc12.Cl (stereo not shown) [C, 2-chloro-4-(3-methyl-morpholino)-thieno[3,4-d]pyrimidine monohydrochloride]
LD50 [1]: 109 mg/kg
LD50 [3]: 117 mg/kg
increase in the femoral flow [2]: marked increase
increase in the cardiac flow [2]: appreciable increase
increase in the cerebral flow (in words) [2]: marked increase
duration of the increase of the cerebral circulation [2]: at least 40 minutes

CCCNc1nc(NC(C)C)c2cscc2n1.O=C(O)/C=C\C(=O)O [D, 2-n-propylamino-4-isopropylamino-thieno[3,4-d]-pyrimidine monomaleate]
LD50 [1]: 25.5 mg/kg
LD50 [3]: 21 mg/kg
increase in the femoral flow [2]: marked increase
increase in the cardiac flow [2]: appreciable increase
increase in the cerebral flow (in words) [2]: marked increase
duration of the increase of the cerebral circulation [2]: at least 40 minutes

CCCc1nc(NC(C)C)c2cscc2n1.O=C(O)/C=C\C(=O)O [E, 2-n-propyl-4-isopropylamino-thieno[3,4-d]pyrimidine mono-maleate]
LD50 [3]: 23 mg/kg
increase in the femoral flow [2]: appreciable increase
increase in the cardiac flow [2]: appreciable increase
increase in the cerebral flow (in words) [2]: appreciable increase

CCOc1nc(NC(C)C)c2cscc2n1.Cl [F, 2-ethoxy-4-isopropylamino-thieno[3,4-d]pyrimidine monohydrochloride]
LD50 [1]: 49 mg/kg
respiratory analeptic effect relative to diethylnicotinamide [4]: equivalent to that produced by a six times higher dose of diethylnicotinamide

CCCNc1nc(OCC)nc2cscc12.Cl [G, 2-ethoxy-4-n-propylamino-thieno[3,4-d]pyrimidine monohydrochloride]
LD50 [1]: 42 mg/kg
respiratory analeptic effect relative to diethylnicotinamide [4]: equivalent to that produced by a six times higher dose of diethylnicotinamide
